Assay results published in patent US10865196B2, “Compounds for treatment of cancer” (University of Tennessee Research Foundation, priority 2008, dated 2020).
Like-named read-outs stand apart in the source and are kept apart here.

Columns and labels:
[1] = tested on: PC3; assay: cell growth inhibition SRB, PC3 (vascular study); assay type: cell-based; conditions: Homo sapiens, PC-3, N = 3, Table 14
Excerpt: (§1) Cell growth inhibition studies. […] Cells were stained with sulphorhodamine B (SRB) solution.

[2] = tested on: CaCO-2; assay: permeability, CaCO-2 assay; conditions: mean of duplicate studies
[3] = tested on: T47D; assay: cell growth inhibition SRB, T47D; assay type: cell-based; conditions: Homo sapiens, N = 3, Table 14
Excerpt: as §1

[4] = tested on: PC-3/TxR tumors; conditions: for Tumor size End: mouse, in vivo, po
[5] = tested on: colchicine-binding site on tubulin; assay: competitive mass binding assay, colchicine-tubulin binding; conditions: tubulin 1 mg/mL
[6] = tested on: LNCaP; assay: SRB antiproliferation assay, LNCaP prostate cancer; conditions: read-out: Cytotoxicity IC50 mean ± SD, LNCaP; 96 h treatment, N = 3
[7] = tested on: confluent HUVEC monolayers; assay: endothelial monolayer permeability assay; assay type: cell-based, human; conditions: leakage of FITC-dextran (MW 40,000) after 1, 2 and 4 h
Excerpt: Endothelial monolayer permeability assay.

[8] = biological target: T1, Porcine brain tubulin (Sus scrofa, UniProt P02550+P02554); assay type: biochemical; conditions: 5 μM, at 15 min
T1 construct: […]; purchased Cytoskeleton, Denver, Colo; host or cells: porcine brain

[9] = pharmacokinetic study in beagle dogs; conditions: dog, PO 5 mg/kg vs IV 2 mg/kg
[10] = pharmacokinetic study in ICR mice; conditions: mouse, PO 20 mg/kg vs IV 10 mg/kg
[11] = tested on: DU 145; assay: SRB antiproliferation assay, DU 145 prostate cancer; conditions: read-out: Cytotoxicity IC50 mean ± SD, Du-145; 96 h treatment, N = 3
[12] = tested on: PPC-1; assay: SRB antiproliferation assay, PPC-1 prostate cancer; conditions: read-out: Cytotoxicity IC50 mean ± SD, PPC-1; 96 h treatment, N = 3
[13] = tested on: PC-3/TxR; assay: apoptosis, cytoplasmic DNA-histone complexes, PC-3/TxR; assay type: cell-based, human; conditions: 0.8 to 600 nmol/L, 24 h
[14] = tested on: PC-3; assay: SRB antiproliferation assay, PC-3 prostate cancer; conditions: human, PC-3 cells, 96 h
[15] = tested on: PC-3; assay: apoptosis, cytoplasmic DNA-histone complexes, PC-3; assay type: cell-based, human; conditions: 0.8 to 600 nmol/L, 24 h
[16] = pharmacokinetic study in Sprague-Dawley rats; conditions: rat
[17] = tested on: prostate cancer cells (LNCaP, PC-3, DU-145, PPC-1); assay: SRB assay, prostate cancer cells; assay type: cell-based, human; conditions: Homo sapiens, range over prostate cancer cell lines; read-out: IC50 values against prostate cancer cells
[18] = tested on: HUVEC; assay: endothelial cell growth inhibition SRB, HUVEC; assay type: cell-based, human; conditions: Homo sapiens, HUVEC; SRB, N = 3, growth factor-supplemented endothelial cells

## COc1cc(C(=O)c2csc(Nc3ccc4[nH]ccc4c3)n2)cc(OC)c1OC [compound 55, (2-(1H-indol-5-ylamino)thiazol-4-yl)(3,4,5-trimethoxyphenyl)methanone]
[1]
  IC50: 23.3 nM
[2]
  Permeability Papp(A→B) in CaCO-2 assay: 99 10^−6 cm/s
[3]
  IC50: 37.4 nM
[4]; PC-3/TxR xenograft, PO 10 mpk b.i.d × 5/w, day 26, start 29 ± 2
  Body weight End: 26 ± 3 g
[4]; PC-3/TxR xenograft, PO 30 mpk b.i.d × 5/w, day 26, 30 mg/kg
  TGI: > 100%
[4]; PC-3/TxR xenograft, PO 30 mpk b.i.d × 5/w, day 26, start 29 ± 3
  Body weight End: 30 ± 2 g
[4]; 10 mg/kg
  Tumor size End: 1152 ± 433 mm^3
[4]; 30 mg/kg
  Tumor size End: 101 ± 19 mm^3
[5]
  competition with colchicine for tubulin binding: competed effectively with colchicine for tubulin binding
[6]
  IC50: 27 ± 0.6 nM
[7]
  permeability of endothelial cell monolayer: increased permeability
[8]
  inhibition of tubulin polymerization: 40%
[9]
  F: 36%
[10]
  F: 34%
[11]
  IC50: 38 ± 0.6 nM
[12]
  IC50: 36 ± 0.4 nM
[13]
  induction of cell apoptosis in PC-3/TxR: equally potent
[14]
  IC50: 16.5 ± 1.5 nM
[15]
  induction of cell apoptosis in PC-3: equally potent
[16]; IV 5 mg/kg
  AUC: 509 ± 73 µg·min/mL
  Vss: 1.0 ± 0.1 L/kg
[16]; PO 10 mg/kg
  AUC: 246 ± 163 µg·min/mL
[16]; PO 10 mg/kg vs IV 5 mg/kg
  F: 24%
[17]
  IC50: 7.5 to 24.1 nM
[18]
  IC50: 9.7 nM
